# Results reported in patent EP0603240B1, “SAFENING HERBICIDAL PYRAZOLYLSULFONYLUREAS” (priority 1991, dated 1993).
# Assays:
# Assay type in all cases: in vivo
# corn [1] = assay: Example 13, Procedure II: Herbicide No. 1 + acetochlor (No. 6) with dichloroacetamide antidotes; conditions: Herbicide Nos. 1 and 6, Table 13
# Description: (§1) Containers were filled and compacted with a fumigated silt loam top soil to a depth of about 1.3 cm from the top of the container. A first container was designated as an untreated control, a second container was designated as a herbicide control, and a third container was designated as a herbicide + antidote test container. Each of the containers was seeded with a crop species. A measured amount of herbicide dispersed or dissolved in acetone was applied to a measured quantity of soil. To this same quantity of soil treated with herbicide, there was added a measured amount of antidote dispersed or dissolved in acetone. The quantity of soil treated with the herbicide and antidote was thoroughly mixed to incorporate the herbicide and antidote in the soil uniformly. The seed bed in the third container of soil was covered with the soil treated with the herbicide and antidote and the container was leveled. For each test series, the seed beds of the first and second containers were likewise covered by soil layers. the cover layer of the first container was not treated with herbicide or antidote.
# (§2) The containers were then placed on a bench in a greenhouse and sub-irrigated as required for the duration of the test. […] Plant response is measured in terms of percent injury. Antidote efficacy is indicated as the difference in plant injury by the herbicide(s) without the antidote and with the antidote.
# (§3) This procedure is the same as Procedure I, but modified in the manner that after incorporation of the chemicals (herbicide and antidote) the containers with the covered seedbed were treated with an initial overhead irrigation equivalent to 0.6 cm rainfall, then subsequently sub-irrigated as required on greenhouse benches.
# In this example a plurality of dichloroacetamide antidotes were tested for their safening efficacy against a herbicidal composition comprising Herbicide No. 1 and a co-herbicide, acetochlor (Herbicide No. 6) in corn in the presence of velvetleaf. The procedure used in this example was Procedure II above.
# corn [2] = assay: Example 19, Procedure II: Herbicide No. 1 + ERADICANE EXTRA with added antidotes
# Description: as §1, §2, §3
# (§4) In the test reported in this example, the herbicidal composition was similar to that used in Example 16 in that Herbicide No. 1 was combined with EPTC (Herbicide No. 4) as a co-herbicide and the antidotes included Nos. 1, 2, 7, 13 and 15. However, in this test the EPTC was introduced as a formulation of ERADICANE (EPTC + the antidote R-25788, i.e., Antidote No. 1) at an application rate of 8.96 kg/ha. Thus, in this test two antidotes were present, viz. R-25788 and one of the auxilliary antidotes, No. 2, 13 and 15.
# The test reported in this example was performed in the same manner and with the same antidotes used in Example 18, the only difference being the substitution of the commercial herbicidal product ERADICANE® EXTRA for ERADICANE®. ERADICANE EXTRA is a formulation containing both an antidote, i.e., R-29148 (Antidote No. 5 herein), and an extender, dietholate.
# corn [3] = assay: Example 3, Procedure I: antidotes against Herbicide No. 1; conditions: Herbicide No. 1, Table 3
# Description: as §1, §2
# This example details the results of tests with Antidote Nos. 12, 15 and 16 to safen Herbicide No. 1 over application rates ranging from 4.48 kg/ha down to 0.56 kg/ha, in corn in the presence of barnyardgrass. Procedure I described above was used in these tests.
# corn [4] = assay: Example 18, Procedure II: Herbicide No. 1 + ERADICANE (EPTC + R-25788) with auxiliary antidotes
# Description: as §1, §2, §3, §4
# Test procedures were those of Procedure II above.
# [5] = test system: velvetleaf (Abutilon theophrasti); assay: Example 8, Procedure II: Herbicide No. 1 + butachlor (No. 9) with antidotes
# Description: as §1, §2, §3
# (§5) In the series of greenhouse tests described below, for routine screening purposes the herbicide/antidote compositions were tested in crop/weed combinations involving corn as the crop and either or both of the weeds barnyardgrass (Echinochloa crusgalli), a monocotyledonous weed, and velvetleaf (Abutilon theophrasti), a dicotyledonous weed. In the tables below, these weeds are indicated by the symbols "BYG" and "VL", respectively.
# (§6) In this test, the efficacy of the same five antidotes used in Examples 6 and 7 was investigated in compositions comprising Herbicide No. 1 and as a co-herbicide, butachlor (Herbicide No. 9), active ingredient in MACHETE® herbicide, a leading commercial rice herbicide. The test procedure used in this example was the same as that in Examples 6 and 7.
# [6] = test system: barnyardgrass (Echinochloa crusgalli); assay: as above
# Description: as §1, §2, §3, §5, §6
# corn [7] = assay: Example 6, Procedure II: Herbicide No. 1 + alachlor (No. 7) with antidotes
# Description: as §1, §2, §3
# This example was designed to investigate the antidotal efficacy of a plurality of antidotal compounds against a composition comprising Herbicide No. 1 in combination with Herbicide No. 7 (alachlor). The antidotal compounds used herein were Nos. 1, 2, 7, 13 and 15.
# In this example, Procedure II described above was followed. The data from the tests in this example is shown in Table 6 and represents averages of duplicate replications.
# [8] = test system: velvetleaf (Abutilon theophrasti); assay: Example 10, Procedure II: Herbicide No. 1 + propachlor (No. 5) with antidotes
# Description: as §1, §2, §3, §5
# (§7) In this test, the safening effect of various antidotes on the herbicidal combination of Herbicide No. 1 and another α-chloroacetanilide co-herbicide, propachlor, (Herbicide No. 5) was investigated. Propachlor is the active ingredient in the commercial herbicide RAMROD®. Procedure II was also used in this test as in the preceding example.
# [9] = test system: barnyardgrass (Echinochloa crusgalli); assay: as above
# Description: as §1, §2, §3, §5, §7
# [10] = Herbicide No.1 0.56 kg/ha alone
# [11] = Herbicide No.1 1.12 kg/ha alone
# [12] = Herbicide No.1 0.56 kg/ha + ERADICANE EXTRA 8.96 kg/ha, antidote 2.24 kg/ha
# [13] = Herbicide No.1 0.56 kg/ha + ERADICANE EXTRA 8.96 kg/ha, antidote 8.96 kg/ha
# [14] = Herbicide No.1 1.12 kg/ha + ERADICANE EXTRA 8.96 kg/ha, antidote 2.24 kg/ha
# [15] = Herbicide No.1 1.12 kg/ha + ERADICANE EXTRA 8.96 kg/ha, antidote 8.96 kg/ha
# [16] = Herbicide No.1 0.56 kg/ha + ERADICANE 8.96 kg/ha, antidote 2.24 kg/ha
# [17] = Herbicide No.1 0.56 kg/ha + ERADICANE 8.96 kg/ha, antidote 8.96 kg/ha
# [18] = Herbicide No.1 1.12 kg/ha + ERADICANE 8.96 kg/ha, antidote 2.24 kg/ha
# [19] = Herbicide No.1 1.12 kg/ha + ERADICANE 8.96 kg/ha, antidote 8.96 kg/ha
# [20] = Herbicide No.1 0.14 + No.9 2.24 kg/ha + antidote 2.24 kg/ha
# [21] = Herbicide No.1 0.14 + No.9 2.24 kg/ha + antidote 8.96 kg/ha
# [22] = Herbicide No.1 0.56 + No.9 2.24 kg/ha + antidote 2.24 kg/ha
# [23] = Herbicide No.1 0.56 + No.9 2.24 kg/ha + antidote 8.96 kg/ha
# [24] = Herbicide No.1 0.14 + No.7 4.48 kg/ha + antidote 2.24 kg/ha
# [25] = Herbicide No.1 0.14 + No.7 4.48 kg/ha + antidote 8.96 kg/ha
# [26] = Herbicide No.1 0.56 + No.7 4.48 kg/ha + antidote 2.24 kg/ha
# [27] = Herbicide No.1 0.56 + No.7 4.48 kg/ha + antidote 8.96 kg/ha
# [28] = Herbicide No.1 0.14 kg/ha + Herbicide No.5 4.48 kg/ha, antidote rate 2.24 kg/ha
# [29] = Herbicide No.1 0.14 kg/ha + Herbicide No.5 4.48 kg/ha, antidote rate 8.96 kg/ha
# [30] = Herbicide No.1 0.56 kg/ha + Herbicide No.5 4.48 kg/ha, antidote rate 2.24 kg/ha
# [31] = Herbicide No.1 0.56 kg/ha + Herbicide No.5 4.48 kg/ha, antidote rate 8.96 kg/ha
structure (smiles),measurement,setting,value
"CC1(C)OC(c2ccco2)CN1C(=O)C(Cl)Cl (centres unmarked) [Antidote No. 15, Oxazolidine, 3-(dichloroacetyl)-5-(2-furanyl)-2,2-dimethyl]","safening of corn, assessment in words",corn [1],most active overall
same,corn injury,"corn [2]; Herbicide No. 1 + ERADICANE EXTRA + added antidote, highest rates of antidotes and herbicides",25%
same,"safening of corn, assessment in words",corn [3],excellent protection for corn
COC(=O)c1c(Cl)nn(C)c1S(=O)(=O)NC(=O)Nc1nc(OC)cc(OC)n1 [No.1],% Injury Corn,"corn [2]; Herbicide No.1 0.56 kg/ha + ERADICANE EXTRA 8.96 kg/ha, no added antidote",30%
same,% Injury Corn,corn [2]; [10],20%
same,% Injury Corn,"corn [2]; Herbicide No.1 1.12 kg/ha + ERADICANE EXTRA 8.96 kg/ha, no added antidote",20%
same,% Injury Corn,corn [2]; [11],25%
same,% Injury Corn,"corn [4]; Herbicide No.1 0.56 kg/ha + ERADICANE 8.96 kg/ha, no added antidote",25%
same,% Injury Corn,corn [4]; [10],30%
same,% Injury Corn,"corn [4]; Herbicide No.1 1.12 kg/ha + ERADICANE 8.96 kg/ha, no added antidote",20%
same,% Injury Corn,corn [4]; [11],25%
O=C1OC(=O)c2cccc3cccc1c23 [compound 2],% Injury Corn,corn [2]; [12],20%
same,% Injury Corn,corn [2]; [13],25%
same,% Injury Corn,corn [2]; [14],25%
same,% Injury Corn,corn [2]; [15],20%
same,% Injury Corn,corn [4]; [16],15%
same,% Injury Corn,corn [4]; [17],25%
same,% Injury Corn,corn [4]; [18],20%
same,% Injury Corn,corn [4]; [19],20%
same,% Injury VL,[5]; [20],70%
same,% Injury VL,[5]; [21],75%
same,% Injury VL,[5]; [22],90%
same,% Injury VL,[5]; [23],80%
same,% Injury BYG,[6]; [20],99%
same,% Injury BYG,[6]; [21],99%
same,% Injury BYG,[6]; [22],99%
same,% Injury BYG,[6]; [23],98%
same,% Injury Corn,corn [7]; [24],0%
same,% Injury Corn,corn [7]; [25],15%
same,% Injury Corn,corn [7]; [26],10%
same,% Injury Corn,corn [7]; [27],15%
same,% Injury VL,[8]; [28],60%
same,% Injury VL,[8]; [29],80%
same,% Injury VL,[8]; [30],75%
same,% Injury VL,[8]; [31],80%
same,% Injury BYG,[9]; [28],100%
same,% Injury BYG,[9]; [29],99%
same,% Injury BYG,[9]; [30],99%
same,% Injury BYG,[9]; [31],99%
O=C(C(Cl)Cl)N1CCOC12CCCCC2 [compound 7],% Injury Corn,corn [2]; [12],15%
same,% Injury Corn,corn [2]; [13],20%
same,% Injury Corn,corn [2]; [14],25%
same,% Injury Corn,corn [2]; [15],25%
same,% Injury Corn,corn [4]; [16],15%
same,% Injury Corn,corn [4]; [17],20%
same,% Injury Corn,corn [4]; [18],15%
same,% Injury Corn,corn [4]; [19],10%
same,% Injury VL,[5]; [20],70%
same,% Injury VL,[5]; [21],65%
same,% Injury VL,[5]; [22],75%
same,% Injury VL,[5]; [23],65%
same,% Injury BYG,[6]; [20],97%
same,% Injury BYG,[6]; [21],99%
same,% Injury BYG,[6]; [22],99%
same,% Injury BYG,[6]; [23],99%
same,% Injury Corn,corn [7]; [24],0%
same,% Injury Corn,corn [7]; [25],10%
same,% Injury Corn,corn [7]; [26],10%
same,% Injury Corn,corn [7]; [27],5%
same,% Injury VL,[8]; [28],70%
same,% Injury VL,[8]; [29],75%
same,% Injury VL,[8]; [30],95%
same,% Injury VL,[8]; [31],80%
same,% Injury BYG,[9]; [28],99%
same,% Injury BYG,[9]; [29],98%
same,% Injury BYG,[9]; [30],98%
same,% Injury BYG,[9]; [31],96%
CC1(C(Cl)Cl)OCCO1 [compound 13],% Injury Corn,corn [2]; [12],25%
same,% Injury Corn,corn [2]; [13],15%
same,% Injury Corn,corn [2]; [14],20%
same,% Injury Corn,corn [2]; [15],15%
same,% Injury Corn,corn [4]; [16],10%
same,% Injury Corn,corn [4]; [17],20%
same,% Injury Corn,corn [4]; [18],10%
same,% Injury Corn,corn [4]; [19],40%
same,% Injury VL,[5]; [20],75%
same,% Injury VL,[5]; [21],80%
same,% Injury VL,[5]; [22],85%
same,% Injury VL,[5]; [23],85%
same,% Injury BYG,[6]; [20],99%
same,% Injury BYG,[6]; [21],99%
same,% Injury BYG,[6]; [22],99%
same,% Injury BYG,[6]; [23],100%
same,% Injury Corn,corn [7]; [24],0%
same,% Injury Corn,corn [7]; [25],0%
same,% Injury Corn,corn [7]; [26],5%
same,% Injury Corn,corn [7]; [27],15%
same,% Injury VL,[8]; [28],70%
same,% Injury VL,[8]; [29],70%
same,% Injury VL,[8]; [30],80%
same,% Injury VL,[8]; [31],75%
same,% Injury BYG,[9]; [28],98%
same,% Injury BYG,[9]; [29],97%
same,% Injury BYG,[9]; [30],99%
same,% Injury BYG,[9]; [31],98%
